Biological target: EGFR-L858R/T790M (Homo sapiens, UniProt P00533, L858R/T790M)
Assay: radiolabeled 33P
Format: biochemical
Conditions: statement in text referring to Table 1

EGFR-L858R/T790M, sequence (P00533 25-1210 T790M/L858R): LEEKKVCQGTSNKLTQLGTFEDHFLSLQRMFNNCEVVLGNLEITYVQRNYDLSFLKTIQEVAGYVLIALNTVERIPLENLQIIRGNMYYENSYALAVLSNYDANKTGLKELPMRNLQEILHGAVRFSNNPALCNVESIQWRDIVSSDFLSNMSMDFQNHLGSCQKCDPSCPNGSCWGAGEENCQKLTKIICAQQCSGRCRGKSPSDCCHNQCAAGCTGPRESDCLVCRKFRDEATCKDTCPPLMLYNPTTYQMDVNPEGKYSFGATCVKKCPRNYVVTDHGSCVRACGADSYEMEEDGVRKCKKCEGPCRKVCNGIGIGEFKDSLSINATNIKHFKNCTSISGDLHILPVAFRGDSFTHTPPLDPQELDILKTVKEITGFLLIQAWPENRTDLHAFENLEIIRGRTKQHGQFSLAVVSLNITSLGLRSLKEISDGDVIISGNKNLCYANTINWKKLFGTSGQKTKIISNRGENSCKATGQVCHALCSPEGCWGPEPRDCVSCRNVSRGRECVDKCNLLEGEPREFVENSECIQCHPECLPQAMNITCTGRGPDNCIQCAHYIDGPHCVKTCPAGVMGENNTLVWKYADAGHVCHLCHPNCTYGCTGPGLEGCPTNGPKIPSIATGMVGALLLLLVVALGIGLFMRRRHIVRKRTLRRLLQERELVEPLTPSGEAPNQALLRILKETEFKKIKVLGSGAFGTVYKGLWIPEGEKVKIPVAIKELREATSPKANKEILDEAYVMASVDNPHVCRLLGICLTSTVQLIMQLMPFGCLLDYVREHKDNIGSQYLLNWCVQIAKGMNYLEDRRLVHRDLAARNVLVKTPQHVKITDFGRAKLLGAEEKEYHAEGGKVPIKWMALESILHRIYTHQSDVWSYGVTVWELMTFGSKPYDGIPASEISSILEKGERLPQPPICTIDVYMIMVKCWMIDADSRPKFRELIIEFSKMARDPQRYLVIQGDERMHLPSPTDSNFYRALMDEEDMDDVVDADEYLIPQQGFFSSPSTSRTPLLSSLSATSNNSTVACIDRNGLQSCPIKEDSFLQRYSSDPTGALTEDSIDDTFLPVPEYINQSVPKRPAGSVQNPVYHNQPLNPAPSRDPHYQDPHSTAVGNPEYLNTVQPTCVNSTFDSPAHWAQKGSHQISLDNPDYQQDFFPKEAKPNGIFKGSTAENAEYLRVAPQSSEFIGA

C=CC(=O)Nc1ccc(OC)c(Nc2cc(-c3nc(SC)n(C)c3-c3ccc(F)cc3)ccn2)c1 [Compound 7, N-(3-((4-(5-(4-fluorophenyl)-1-methyl-2-(methylthio)-1H-imidazol-4-yl)pyridin-2-yl)amino)-4-methoxyphenyl)acrylamide]
potency against EGFR(L858R/T790M), in words: low nanomolar potency

Reference: publication PMC7730863 (Journal of medicinal chemistry, 2020)
